Assay results published in ChEMBL document CHEMBL3045592, “Studies of O,O-dimethyl α-(2,4-dichlorophenoxyacetoxy)ethylphosphonate (HW02) as a new herbicide. 1. Synthesis and herbicidal activity of HW02 and analogues as novel inhibitors of pyruvate dehydrogenase complex” (J Agric Food Chem, 2011).

Assays:
Abutilon theophrasti [1] = experiment: Pre-emergence herbicidal activity against Abutilon theophrasti (velvetleaf) assessed as growth inhibition at 75 ai g/ha after 20 days by green house test; assay type: functional
Abutilon theophrasti [2] = experiment: Post-emergence herbicidal activity against Abutilon theophrasti (velvetleaf) assessed as growth inhibition at 450 ai g/ha after 20 days by green house test; assay type: functional
Digitaria sanguinalis [3] = experiment: Post-emergence herbicidal activity against Digitaria sanguinalis (hairy crabgrass) assessed as growth inhibition at 450 ai g/ha after 20 days by green house test; assay type: functional
Chenopodium album [4] = experiment: Pre-emergence herbicidal activity against Chenopodium album assessed as growth inhibition at 150 ai g/ha after 20 days by green house test; assay type: functional
Brassica juncea = experiment: Post-emergence herbicidal activity against Brassica juncea assessed as growth inhibition at 450 ai g/ha after 20 days by green house test; assay type: functional
Setaria viridis [5] = experiment: Post-emergence herbicidal activity against Setaria viridis (green foxtail) assessed as growth inhibition at 75 ai g/ha after 20 days by green house test; assay type: functional
Abutilon theophrasti [6] = experiment: Pre-emergence herbicidal activity against Abutilon theophrasti (velvetleaf) assessed as growth inhibition at 450 ai g/ha after 20 days by green house test; assay type: functional
Abutilon theophrasti [7] = experiment: Post-emergence herbicidal activity against Abutilon theophrasti (velvetleaf) assessed as growth inhibition at 75 ai g/ha after 20 days by green house test; assay type: functional
Digitaria sanguinalis [8] = experiment: Pre-emergence herbicidal activity against Digitaria sanguinalis (hairy crabgrass) assessed as growth inhibition at 150 ai g/ha after 20 days by green house test; assay type: functional
Amaranthus spinosus [9] = experiment: Pre-emergence herbicidal activity against Amaranthus spinosus assessed as growth inhibition at 150 ai g/ha after 20 days by green house test; assay type: functional
Digitaria sanguinalis [10] = experiment: Post-emergence herbicidal activity against Digitaria sanguinalis (hairy crabgrass) assessed as growth inhibition at 150 ai g/ha after 20 days by green house test; assay type: functional
Pisum sativum = experiment: Post-emergence herbicidal activity against Pisum sativum Zhongwan-2 (pea) assessed as growth inhibition at 450 ai g/ha after 20 days by green house test; details: Lathyrus oleraceus
[11] = Toxicity against Oryza sativa (rice) assessed as growth inhibition at 450 ai g/ha post-emergent application measured after 20 days by green house crop selectivity test; assay type: organism-based; details: in vivo, read-out: GI
Amaranthus spinosus [12] = experiment: Pre-emergence herbicidal activity against Amaranthus spinosus assessed as growth inhibition at 450 ai g/ha after 20 days by green house test; assay type: functional
Setaria viridis [13] = experiment: Pre-emergence herbicidal activity against Setaria viridis (green foxtail) assessed as growth inhibition at 150 ai g/ha after 20 days by green house test; assay type: functional
Chenopodium album [14] = experiment: Post-emergence herbicidal activity against Chenopodium album assessed as growth inhibition at 75 ai g/ha after 20 days by green house test; assay type: functional
Abutilon theophrasti [15] = experiment: Post-emergence herbicidal activity against Abutilon theophrasti (velvetleaf) assessed as growth inhibition at 150 ai g/ha after 20 days by green house test; assay type: functional
Amaranthus spinosus [16] = experiment: Post-emergence herbicidal activity against Amaranthus spinosus assessed as growth inhibition at 450 ai g/ha after 20 days by green house test; assay type: functional
Setaria viridis [17] = experiment: Post-emergence herbicidal activity against Setaria viridis (green foxtail) assessed as growth inhibition at 150 ai g/ha after 20 days by green house test; assay type: functional
Digitaria sanguinalis [18] = experiment: Pre-emergence herbicidal activity against Digitaria sanguinalis (hairy crabgrass) assessed as growth inhibition at 450 ai g/ha after 20 days by green house test; assay type: functional
Chenopodium album [19] = experiment: Post-emergence herbicidal activity against Chenopodium album assessed as growth inhibition at 450 ai g/ha after 20 days by green house test; assay type: functional
Echinochloa crus-galli [20] = experiment: Post-emergence herbicidal activity against Echinochloa crus-galli (barnyard grass) assessed as growth inhibition at 450 ai g/ha after 20 days by green house test; assay type: functional
Amaranthus spinosus [21] = experiment: Pre-emergence herbicidal activity against Amaranthus spinosus assessed as growth inhibition at 75 ai g/ha after 20 days by green house test; assay type: functional
Digitaria sanguinalis [22] = experiment: Post-emergence herbicidal activity against Digitaria sanguinalis (hairy crabgrass) assessed as growth inhibition at 75 ai g/ha after 20 days by green house test; assay type: functional
Amaranthus retroflexus [23] = experiment: Post-emergence herbicidal activity against Amaranthus retroflexus assessed as growth inhibition at 450 ai g/ha after 20 days by green house test; assay type: functional
Amaranthus spinosus [24] = experiment: Post-emergence herbicidal activity against Amaranthus spinosus assessed as growth inhibition at 75 ai g/ha after 20 days by green house test; assay type: functional
Setaria viridis [25] = experiment: Pre-emergence herbicidal activity against Setaria viridis (green foxtail) assessed as growth inhibition at 75 ai g/ha after 20 days by green house test; assay type: functional
Digitaria sanguinalis [26] = experiment: Pre-emergence herbicidal activity against Digitaria sanguinalis (hairy crabgrass) assessed as growth inhibition at 75 ai g/ha after 20 days by green house test; assay type: functional
Cucumis sativus = experiment: Herbicidal activity against Cucumis sativus Jin 4 (cucumber) assessed as inhibition of root growth after 3 days; assay type: functional, organism-based; details: Jin 4, 72 h
Chenopodium album [27] = experiment: Pre-emergence herbicidal activity against Chenopodium album assessed as growth inhibition at 450 ai g/ha after 20 days by green house test; assay type: functional
Amaranthus spinosus [28] = experiment: Post-emergence herbicidal activity against Amaranthus spinosus assessed as growth inhibition at 150 ai g/ha after 20 days by green house test; assay type: functional
[29] = biological target: Pyruvate dehydrogenase complex (Vigna radiata var. radiata); experiment: Inhibition of PDHc in Vigna radiata var. radiata VC2778A shoot mitochondria assessed as decrease in rate of NADH formation using sodium pyruvate as substrate preincubated for 25 min before substrate addition measured after 1 min by spectrophotometric assay; assay type: protein-complex assay
Abutilon theophrasti [30] = experiment: Pre-emergence herbicidal activity against Abutilon theophrasti (velvetleaf) assessed as growth inhibition at 150 ai g/ha after 20 days by green house test; assay type: functional
Chenopodium album [31] = experiment: Pre-emergence herbicidal activity against Chenopodium album assessed as growth inhibition at 75 ai g/ha after 20 days by green house test; assay type: functional
Chenopodium album [32] = experiment: Post-emergence herbicidal activity against Chenopodium album assessed as growth inhibition at 150 ai g/ha after 20 days by green house test; assay type: functional
Setaria viridis [33] = experiment: Post-emergence herbicidal activity against Setaria viridis (green foxtail) assessed as growth inhibition at 450 ai g/ha after 20 days by green house test; assay type: functional
Setaria viridis [34] = experiment: Pre-emergence herbicidal activity against Setaria viridis (green foxtail) assessed as growth inhibition at 450 ai g/ha after 20 days by green house test; assay type: functional
Digitaria sanguinalis [35] = experiment: Pre-emergence herbicidal activity against Digitaria sanguinalis (hairy crabgrass) assessed as growth inhibition at 1500 ai g/ha after 20 days by green house test; assay type: functional
[36] = system: Brassica rapa subsp. oleifera; experiment: Pre-emergence herbicidal activity against Brassica rapa subsp. oleifera Si Yue Man assessed as growth inhibition at 1500 ai g/ha after 20 days by green house test; assay type: functional
Medicago sativa [37] = experiment: Post-emergence herbicidal activity against Medicago sativa (alfalfa) assessed as growth inhibition at 1500 ai g/ha after 20 days by green house test; assay type: functional
Medicago sativa [38] = experiment: Pre-emergence herbicidal activity against Medicago sativa (alfalfa) assessed as growth inhibition at 1500 ai g/ha after 20 days by green house test; assay type: functional
Amaranthus retroflexus [39] = experiment: Post-emergence herbicidal activity against Amaranthus retroflexus assessed as growth inhibition at 1500 ai g/ha after 20 days by green house test; assay type: functional
Echinochloa crus-galli [40] = experiment: Pre-emergence herbicidal activity against Echinochloa crus-galli (barnyard grass) assessed as growth inhibition at 1500 ai g/ha after 20 days by green house test; assay type: functional
[41] = system: Brassica rapa subsp. oleifera; experiment: Post-emergence herbicidal activity against Brassica rapa subsp. oleifera Si Yue Man assessed as growth inhibition at 1500 ai g/ha after 20 days by green house test; assay type: functional
Echinochloa crus-galli [42] = experiment: Post-emergence herbicidal activity against Echinochloa crus-galli (barnyard grass) assessed as growth inhibition at 1500 ai g/ha after 20 days by green house test; assay type: functional
Digitaria sanguinalis [43] = experiment: Post-emergence herbicidal activity against Digitaria sanguinalis (hairy crabgrass) assessed as growth inhibition at 1500 ai g/ha after 20 days by green house test; assay type: functional
Amaranthus retroflexus [44] = experiment: Pre-emergence herbicidal activity against Amaranthus retroflexus assessed as growth inhibition at 1500 ai g/ha after 20 days by green house test; assay type: functional

| Compound | growth inhibition (GI) (Abutilon theophrasti [2]) | growth inhibition (GI) (Digitaria sanguinalis [3]) | growth inhibition (GI) (Chenopodium album [4]) | growth inhibition (GI) (Abutilon theophrasti [6]) | growth inhibition (GI) (Digitaria sanguinalis [8]) | growth inhibition (GI) (Amaranthus spinosus [9]) | growth inhibition (GI) (Digitaria sanguinalis [10]) | growth inhibition (GI) (Amaranthus spinosus [12]) | growth inhibition (GI) (Setaria viridis [13]) | growth inhibition (GI) (Abutilon theophrasti [15]) | growth inhibition (GI) (Amaranthus spinosus [16]) | growth inhibition (GI) (Setaria viridis [17]) | growth inhibition (GI) (Digitaria sanguinalis [18]) | growth inhibition (GI) (Chenopodium album [19]) | growth inhibition (GI) (Chenopodium album [27]) | growth inhibition (GI) (Amaranthus spinosus [28]) | growth inhibition (GI) (Abutilon theophrasti [30]) | growth inhibition (GI) (Chenopodium album [32]) | growth inhibition (GI) (Setaria viridis [33]) | growth inhibition (GI) (Setaria viridis [34]) | also measured |
| --- | --- | --- | --- | --- | --- | --- | --- | --- | --- | --- | --- | --- | --- | --- | --- | --- | --- | --- | --- | --- | --- |
| CCOP(=O)(OCC)C(C)OC(=O)COc1ccc(Cl)cc1Cl (configuration not stated) | 100% | 0% | 0% | 47.5% | 0% | 0% | 0% | 50% | 0% | 97.5% | 100% | 0% | 10% | 97.5% | 52.5% | 82.5% | 0% | 92.5% | 0% | 5.5% | growth inhibition (GI) (Abutilon theophrasti [1]): 0%; growth inhibition (GI) (Brassica juncea): 97.5%; growth inhibition (GI) (Setaria viridis [5]): 0%; growth inhibition (GI) (Abutilon theophrasti [7]): 97.5%; growth inhibition (GI) (Pisum sativum): 82.5%; inhibition at 480 h [11]: 37.5%; growth inhibition (GI) (Chenopodium album [14]): 62.5%; growth inhibition (GI) (Echinochloa crus-galli [20]): 5%; growth inhibition (GI) (Amaranthus spinosus [21]): 0%; growth inhibition (GI) (Digitaria sanguinalis [22]): 0%; growth inhibition (GI) (Amaranthus retroflexus [23]): 100%; growth inhibition (GI) (Amaranthus spinosus [24]): 52.5%; growth inhibition (GI) (Setaria viridis [25]): 0%; growth inhibition (GI) (Digitaria sanguinalis [26]): 0%; IC50 (Cucumis sativus): 0.3 µM; IC50 [29]: 23.1 µM; growth inhibition (GI) (Chenopodium album [31]): 0% |
| COP(=O)(OC)C(C)OC(=O)COc1ccc(Cl)cc1C (configuration not stated) | 96% | 10% | 0% | 0% | 0% | 0% | 0% | 30% | 0% | 82% | 100% | 0% | 16% | 80% | 0% | 10% | 0% | 60% | 0% | 0% | growth inhibition (GI) (Digitaria sanguinalis [35]): 90%; growth inhibition (GI) [36]: 90%; growth inhibition (GI) (Medicago sativa [37]): 50%; growth inhibition (GI) (Medicago sativa [38]): 90%; growth inhibition (GI) (Amaranthus retroflexus [39]): 90%; growth inhibition (GI) (Echinochloa crus-galli [40]): 90%; growth inhibition (GI) [41]: 90%; growth inhibition (GI) (Echinochloa crus-galli [42]): 50%; growth inhibition (GI) (Digitaria sanguinalis [43]): 50%; growth inhibition (GI) (Amaranthus retroflexus [44]): 90% |
